# Numbers after ± are expanded uncertainties.
# Assay: activity coefficient (dimensionless); of the first substance listed, at infinite dilution; xn = mol fraction of the nth substance listed
# Conditions: 101.33 kPa, Liquid, Chromatography, x1 = 0
SMILES,activity coefficient (318.15 K),activity coefficient (328.15 K),activity coefficient (338.15 K),activity coefficient (348.15 K),activity coefficient (358.15 K),activity coefficient (368.15 K),activity coefficient (378.15 K)
CCCc1ccccc1 [propylbenzene] + CCCCCCCCCCCC[N+](C)(C)CCOc1ccccc1.O=S(=O)([N-]S(=O)(=O)C(F)(F)F)C(F)(F)F,1.09 ± 0.07,1.15 ± 0.07,1.2 ± 0.08,1.26 ± 0.08,1.32 ± 0.09,1.37 ± 0.09,
CC1CCCCC1 [methylcyclohexane] + CCCCCCCCCCCC[N+](C)(C)CCOc1ccccc1.N#C[N-]C#N,,3.67 ± 0.25,3.73 ± 0.25,3.78 ± 0.26,3.85 ± 0.26,3.9 ± 0.27,3.95 ± 0.27
CCCCCC [hexane] + CCCCCCCCCCCC[N+](C)(C)CCOc1ccccc1.O=S(=O)([N-]S(=O)(=O)C(F)(F)F)C(F)(F)F,2.91 ± 0.2,2.99 ± 0.2,3.06 ± 0.21,3.15 ± 0.21,3.21 ± 0.22,3.28 ± 0.22,
"Cc1cccc(C)c1 [1,3-dimethylbenzene] + CCCCCCCCCCCC[N+](C)(C)CCOc1ccccc1.O=S(=O)([N-]S(=O)(=O)C(F)(F)F)C(F)(F)F",0.847 ± 0.054,0.902 ± 0.057,0.957 ± 0.06,1.01 ± 0.06,1.07 ± 0.07,1.12 ± 0.07,
"Cc1ccccc1C [1,2-dimethylbenzene] + CCCCCCCCCCCC[N+](C)(C)CCOc1ccccc1.N#C[N-]C#N",,1.23 ± 0.08,1.28 ± 0.08,1.32 ± 0.09,1.36 ± 0.09,1.4 ± 0.09,1.43 ± 0.09
C#CCCC [1-pentyne] + CCCCCCCCCCCC[N+](C)(C)CCOc1ccccc1.N#C[N-]C#N,,1.47 ± 0.1,1.53 ± 0.1,1.6 ± 0.11,1.66 ± 0.11,1.73 ± 0.12,1.79 ± 0.12
C=Cc1ccccc1 [styrene] + CCCCCCCCCCCC[N+](C)(C)CCOc1ccccc1.N#C[N-]C#N,,0.905 ± 0.057,0.94 ± 0.06,0.981 ± 0.062,1.02 ± 0.06,1.06 ± 0.07,1.1 ± 0.07
CCCCCCC [heptane] + CCCCCCCCCCCC[N+](C)(C)CCOc1ccccc1.N#C[N-]C#N,,5.99 ± 0.41,6.08 ± 0.41,6.16 ± 0.42,6.24 ± 0.43,6.33 ± 0.43,6.41 ± 0.44
c1ccncc1 [pyridine] + CCCCCCCCCCCC[N+](C)(C)CCOc1ccccc1.N#C[N-]C#N,,0.586 ± 0.042,0.604 ± 0.042,0.622 ± 0.043,0.639 ± 0.044,0.656 ± 0.045,0.673 ± 0.046
CCC(C)O (configuration not stated) [butan-2-ol] + CCCCCCCCCCCC[N+](C)(C)CCOc1ccccc1.N#C[N-]C#N,,0.495 ± 0.038,0.508 ± 0.038,0.522 ± 0.039,0.536 ± 0.039,0.55 ± 0.04,0.564 ± 0.041
CC(C)OC(C)C [diisopropyl ether] + CCCCCCCCCCCC[N+](C)(C)CCOc1ccccc1.O=S(=O)([N-]S(=O)(=O)C(F)(F)F)C(F)(F)F,1.9 ± 0.13,1.97 ± 0.13,2.03 ± 0.14,2.1 ± 0.14,2.16 ± 0.15,2.22 ± 0.15,
C=CCCCC [hex-1-ene] + CCCCCCCCCCCC[N+](C)(C)CCOc1ccccc1.O=S(=O)([N-]S(=O)(=O)C(F)(F)F)C(F)(F)F,2.19 ± 0.15,2.24 ± 0.15,2.28 ± 0.16,2.32 ± 0.16,2.36 ± 0.16,2.41 ± 0.16,
CC(C)c1ccccc1 [isopropylbenzene] + CCCCCCCCCCCC[N+](C)(C)CCOc1ccccc1.N#C[N-]C#N,,1.82 ± 0.12,1.87 ± 0.13,1.94 ± 0.13,2 ± 0.14,2.05 ± 0.14,2.11 ± 0.14
CCCOCCC [dipropyl ether] + CCCCCCCCCCCC[N+](C)(C)CCOc1ccccc1.N#C[N-]C#N,,3.36 ± 0.23,3.46 ± 0.24,3.54 ± 0.24,3.61 ± 0.25,3.68 ± 0.25,3.76 ± 0.26
CCCCCCCCC [nonane] + CCCCCCCCCCCC[N+](C)(C)CCOc1ccccc1.N#C[N-]C#N,,7.69 ± 0.52,7.83 ± 0.53,7.95 ± 0.54,8.08 ± 0.55,8.21 ± 0.56,8.34 ± 0.57
CCCCO [butan-1-ol] + CCCCCCCCCCCC[N+](C)(C)CCOc1ccccc1.N#C[N-]C#N,,0.463 ± 0.036,0.473 ± 0.037,0.483 ± 0.037,0.494 ± 0.038,0.504 ± 0.038,0.514 ± 0.038

SMILES,activity coefficient (318.15 K),activity coefficient (328.15 K),activity coefficient (338.15 K),activity coefficient (348.15 K),activity coefficient (358.15 K),activity coefficient (368.15 K),activity coefficient (378.15 K)
CCCO [propan-1-ol] + CCCCCCCCCCCC[N+](C)(C)CCOc1ccccc1.N#C[N-]C#N,,0.425 ± 0.035,0.435 ± 0.035,0.445 ± 0.036,0.454 ± 0.036,0.463 ± 0.036,0.471 ± 0.037
C=CCCCCCC [oct-1-ene] + CCCCCCCCCCCC[N+](C)(C)CCOc1ccccc1.N#C[N-]C#N,,4.87 ± 0.33,4.98 ± 0.34,5.09 ± 0.35,5.2 ± 0.35,5.29 ± 0.36,5.38 ± 0.37
CCCCCO [pentan-1-ol] + CCCCCCCCCCCC[N+](C)(C)CCOc1ccccc1.N#C[N-]C#N,,0.477 ± 0.037,0.491 ± 0.037,0.505 ± 0.038,0.517 ± 0.039,0.53 ± 0.039,0.542 ± 0.04
CCC[N+](=O)[O-] [1-nitropropane] + CCCCCCCCCCCC[N+](C)(C)CCOc1ccccc1.N#C[N-]C#N,,0.83 ± 0.053,0.85 ± 0.055,0.868 ± 0.055,0.886 ± 0.056,0.903 ± 0.057,0.92 ± 0.058
CC#N [acetonitrile] + CCCCCCCCCCCC[N+](C)(C)CCOc1ccccc1.N#C[N-]C#N,,0.756 ± 0.05,0.766 ± 0.05,0.775 ± 0.051,0.785 ± 0.051,0.793 ± 0.052,0.801 ± 0.052
CCC(C)(C)OC [2-methoxy-2-methylbutane] + CCCCCCCCCCCC[N+](C)(C)CCOc1ccccc1.O=S(=O)([N-]S(=O)(=O)C(F)(F)F)C(F)(F)F,1.22 ± 0.08,1.29 ± 0.08,1.36 ± 0.09,1.43 ± 0.09,1.5 ± 0.1,1.56 ± 0.1,
c1ccsc1 [thiophene] + CCCCCCCCCCCC[N+](C)(C)CCOc1ccccc1.O=S(=O)([N-]S(=O)(=O)C(F)(F)F)C(F)(F)F,0.534 ± 0.039,0.562 ± 0.04,0.591 ± 0.042,0.62 ± 0.043,0.649 ± 0.044,0.68 ± 0.046,
CC(C)CO [2-methyl-1-propanol] + CCCCCCCCCCCC[N+](C)(C)CCOc1ccccc1.N#C[N-]C#N,,0.451 ± 0.036,0.46 ± 0.036,0.469 ± 0.037,0.477 ± 0.037,0.486 ± 0.037,0.494 ± 0.038
c1ccccc1 [benzene] + CCCCCCCCCCCC[N+](C)(C)CCOc1ccccc1.O=S(=O)([N-]S(=O)(=O)C(F)(F)F)C(F)(F)F,0.569 ± 0.041,0.6 ± 0.042,0.629 ± 0.043,0.658 ± 0.045,0.687 ± 0.046,0.716 ± 0.048,
C1CCCCCCC1 [cyclooctane] + CCCCCCCCCCCC[N+](C)(C)CCOc1ccccc1.N#C[N-]C#N,,3.56 ± 0.24,3.63 ± 0.25,3.69 ± 0.25,3.72 ± 0.25,3.76 ± 0.26,3.79 ± 0.26
C1CCCCCC1 [cycloheptane] + CCCCCCCCCCCC[N+](C)(C)CCOc1ccccc1.O=S(=O)([N-]S(=O)(=O)C(F)(F)F)C(F)(F)F,2.26 ± 0.15,2.3 ± 0.16,2.34 ± 0.16,2.37 ± 0.16,2.4 ± 0.16,2.43 ± 0.17,
CCCC(=O)OC [methyl butanoate] + CCCCCCCCCCCC[N+](C)(C)CCOc1ccccc1.O=S(=O)([N-]S(=O)(=O)C(F)(F)F)C(F)(F)F,0.565 ± 0.041,0.601 ± 0.042,0.636 ± 0.044,0.672 ± 0.046,0.706 ± 0.047,0.741 ± 0.049,
CCC(=O)OC [methyl propanoate] + CCCCCCCCCCCC[N+](C)(C)CCOc1ccccc1.N#C[N-]C#N,,1.13 ± 0.07,1.16 ± 0.07,1.19 ± 0.08,1.22 ± 0.08,1.25 ± 0.08,1.28 ± 0.08
CCCCCC [hexane] + CCCCCCCCCCCC[N+](C)(C)CCOc1ccccc1.N#C[N-]C#N,,5.12 ± 0.35,5.22 ± 0.36,5.3 ± 0.36,5.41 ± 0.37,5.53 ± 0.38,5.6 ± 0.38
Cc1ccccc1 [toluene] + CCCCCCCCCCCC[N+](C)(C)CCOc1ccccc1.N#C[N-]C#N,,1.05 ± 0.07,1.1 ± 0.07,1.15 ± 0.07,1.19 ± 0.08,1.24 ± 0.08,1.28 ± 0.08
C=COC(C)=O [vinyl acetate] + CCCCCCCCCCCC[N+](C)(C)CCOc1ccccc1.N#C[N-]C#N,,1.24 ± 0.08,1.28 ± 0.08,1.31 ± 0.09,1.35 ± 0.09,1.38 ± 0.09,1.41 ± 0.09

# Source: the NIST ThermoML archive (doi:10.1016/j.fluid.2018.09.024)
